Like-named read-outs stand apart in the source and are kept apart here.
Assays:
[1] = tested on: skin (stratum corneum stripped, hyperemia); test: vasoconstriction test (topical ointment on stripped skin, skin color value); assay type: in vivo, human volunteers; settings: concentration 0.00001%, untreated skin = 100, stripped skin = 0
Description: The local anti-inflammatory activity of the corticoids can be determined by means of the conventional vasoconstriction test.
On the backs of persons volunteering for the experiment, the stratum corneum was split up by the application and removal of an adhesive strip having a width of 2 cm. applied twenty times at the same spot, thus producing a pronounced hyperemia. Within the stripped area, 50 mg of an ointment preparation were applied to each one of a number of marked zones of a size of 4 cm^2. The ointment base without active ingredient served as the blank value. The color value of the untreated skin was set at 100 while that of the stripped skin was set at 0. The skin color value under vasoconstriction was correspondingly evaluated between 0 and 100.

thymus = test: thymolysis test (oral, adrenalectomized rats, thymus weight); assay type: in vivo, SPF rats; settings: Rattus norvegicus, 72 h, read-out: Thymolysis ED50
Description: The systemic activity of the compounds of this invention was determined as follows with the aid of the well-known thymolysis test:
SPF [specific-pathogen free] rats weighing 70- 110 g were adrenalectomized under ether narcosis. Six animals, respectively, formed each test group and received orally over a period of three days a defined amount of the test compound. On the fourth day, the animals were sacrificed and the weight of their thymus determined. The control animals were treated in the same way, but received a benzyl benzoate-castor -castor oil mixture without the test compound. From the thus-measured thymus weights, the amount of test compound at which a 50% thymolysis was observed was conventionally determined.

paw edema = test: adjuvant-edema test (oral, Mycobacterium butyricum paw edema); assay type: in vivo, SPF rats; settings: Rattus norvegicus, read-out: Adjuvant Edema Test ED50
Description: Furthermore, the systemic activity was determined with the aid of the adjuvant-edema test as follows:
SPF rats weighing 130-150 g were injected in the right hind paw with 0.1 ml of a 0.5% Mycobacterium butyricum suspension (obtainable from the U.S. company, Difco), in order to induce a center of inflammation. Prior to injection, the paw volume of the rats was measured. Twenty four hours after injection, the paw volume was measured once again to determine the extent of the edema. Thereafter, varying amounts of the test compound, was administered orally to the rats. After another 24 hours, the paw volume was again determined.
The control animals were treated in the same way but without any test compound.
From the thus-obtained paw volumes, the amount of test compound which was required to achieve a 50% reduction the paw edema was conventionally determined. Difluocotolone 21-valerate was also utilized in these tests as the comparison compound.

[2] = oral, three days, 50% thymolysis, adrenalectomized rats, systemic activity
[3] = oral, 50% reduction of paw edema, systemic activity

**Q.** How did the “Vasoconstriction after 4 Hours” value [1] turn out when `C[C@]12C=CC(=O)C=C1CCC1=C2[C@@H](O)C[C@@]2(C)[C@H]1CC[C@]2(OC(=O)c1ccccc1)C(=O)CCl` [V, 17α-Benzoyloxy-21-chloro-11β-hydroxy-1,4,8(9)-pregnatriene-3,20-dione] was run?
**A.** 52%

**Q.** And the “Vasoconstriction after 8 Hours” value [1]?
**A.** 64%

**Q.** And the ED50 (thymus; [2])?
**A.** 1 mg/kg

**Q.** What about the ED50 (paw edema; [3]) of the same compound?
**A.** 1 mg/kg

**Q.** `CC(C)(C)C(=O)OCC(=O)[C@@]1(OC(=O)c2ccccc2)CC[C@H]2C3=C([C@@H](O)C[C@@]21C)[C@@]1(C)C=CC(=O)C=C1CC3` [II, 17α-Benzoyloxy-11β-hydroxy-21-trimethylacetoxy-1,4,8(9)-pregnatriene-3,20-dione] was tested. Which “Vasoconstriction after 4 Hours” value [1] did it give?
**A.** 30%

**Q.** What about the “Vasoconstriction after 8 Hours” value [1] of the same compound?
**A.** 33%

**Q.** And the ED50 (thymus; [2])?
**A.** 5.5 mg/kg

**Q.** What about the ED50 (paw edema; [3]) of the same compound?
**A.** 10 mg/kg

**Q.** `CC(=O)O[C@]1(C(=O)CCl)CC[C@H]2C3=C([C@@H](O)C[C@@]21C)[C@@]1(C)C=CC(=O)C=C1CC3` [III, 17α-Acetoxy-21-chloro-11β-hydroxy-1,4,8(9)-pregnatriene-3,20-dione] was tested. Which “Vasoconstriction after 4 Hours” value [1] did it give?
**A.** 42%

**Q.** And the “Vasoconstriction after 8 Hours” value [1]?
**A.** 42%

**Q.** And the ED50 (thymus; [2])?
**A.** 3.6 mg/kg

**Q.** And the ED50 (paw edema; [3])?
**A.** 3.6 mg/kg

**Q.** For `CCC(=O)O[C@]1(C(=O)CCl)CC[C@H]2C3=C([C@@H](O)C[C@@]21C)[C@@]1(C)C=CC(=O)C=C1CC3` [IV, 21-Chloro-11β-hydroxy-17α-propionyloxy-1,4,8(9)-pregnatriene-3,20-dione], which “Vasoconstriction after 4 Hours” value [1] is on record?
**A.** 47%

**Q.** And the “Vasoconstriction after 8 Hours” value [1]?
**A.** 45%

**Q.** And the ED50 (thymus; [2])?
**A.** 2 mg/kg

**Q.** And the ED50 (paw edema; [3])?
**A.** 2 mg/kg

**Q.** Which results are given for `CCCCC(=O)OCC(=O)[C@H]1[C@H](C)C[C@H]2[C@@H]3C[C@H](F)C4=CC(=O)C=C[C@]4(C)[C@@]3(F)[C@@H](O)C[C@@]21C` [I, 6α, 9α-difluoro-11β-hydroxy-16α-methyl-21-valeryloxy-1,4-pregnadiene-3,20-dione, reference compound]?
**A.** Vasoconstriction after 4 Hours [1]: 33%; Vasoconstriction after 8 Hours [1]: 36%; ED50 (thymus; po): 0.03 mg/kg; ED50 (paw edema; po): 0.3 mg/kg
